Laboratory results as given in ChEMBL document CHEMBL1125573 (J Med Chem, 1992).
pKi: −log10 of the molar value.

How the values were obtained:
D(2) dopamine receptor [1] = molecular target: T1, D(2) dopamine receptor (Rattus norvegicus, UniProt P61169); test: Binding affinity towards Dopamine receptor D2 by displacing [3H]spiperone
[2] = molecular target: Serotonin 2 (5-HT2) receptor (Rattus norvegicus, UniProt P30994+P08909+P14842); test: The compound was tested in vitro for binding affinity towards 5-hydroxytryptamine 2 receptor by displacing [125]I-LSD radioligand; type: protein assay
D(2) dopamine receptor [3] = molecular target: T1, D(2) dopamine receptor; test: Displacement of [3H]spiperone from dopamine receptor D2
[4] = molecular target: Dopamine D2 receptor/Serotonin 2 (5-HT2) receptor (Rattus norvegicus) (UniProt P61169+P30994+P08909+P14842); test: Relative binding affinity for dopamine D2 and 5-HT2 receptors; type: protein assay
Sequence of Dopamine D2 receptor/Serotonin 2 (5-HT2) receptor (Rattus norvegicus) (P08909 whole entry, looked up): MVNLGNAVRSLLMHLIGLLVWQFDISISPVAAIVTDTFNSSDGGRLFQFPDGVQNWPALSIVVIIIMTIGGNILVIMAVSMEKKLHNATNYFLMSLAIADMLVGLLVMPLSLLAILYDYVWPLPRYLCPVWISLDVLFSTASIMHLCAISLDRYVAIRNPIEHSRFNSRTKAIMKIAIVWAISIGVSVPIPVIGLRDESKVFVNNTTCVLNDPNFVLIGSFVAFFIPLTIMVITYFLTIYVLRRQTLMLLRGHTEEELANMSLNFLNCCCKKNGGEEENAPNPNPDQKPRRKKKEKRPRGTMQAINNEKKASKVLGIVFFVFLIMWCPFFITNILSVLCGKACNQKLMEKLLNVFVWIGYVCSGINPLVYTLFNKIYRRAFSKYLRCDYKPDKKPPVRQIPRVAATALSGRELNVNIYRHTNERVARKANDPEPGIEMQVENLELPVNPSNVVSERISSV
Sequence of Dopamine D2 receptor/Serotonin 2 (5-HT2) receptor (Rattus norvegicus) (P14842 whole entry, looked up): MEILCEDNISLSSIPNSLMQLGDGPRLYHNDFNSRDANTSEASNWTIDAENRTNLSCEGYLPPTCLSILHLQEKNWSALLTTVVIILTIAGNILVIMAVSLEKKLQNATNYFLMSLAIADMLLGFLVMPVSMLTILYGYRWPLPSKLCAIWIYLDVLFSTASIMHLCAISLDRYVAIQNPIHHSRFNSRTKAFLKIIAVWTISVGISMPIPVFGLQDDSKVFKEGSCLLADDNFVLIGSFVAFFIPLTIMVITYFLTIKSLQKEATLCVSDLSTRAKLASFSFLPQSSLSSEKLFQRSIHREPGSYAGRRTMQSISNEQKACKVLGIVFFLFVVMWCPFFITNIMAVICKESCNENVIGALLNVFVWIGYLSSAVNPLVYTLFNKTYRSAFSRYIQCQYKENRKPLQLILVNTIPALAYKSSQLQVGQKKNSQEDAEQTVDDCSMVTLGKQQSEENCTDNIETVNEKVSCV
Sequence of Dopamine D2 receptor/Serotonin 2 (5-HT2) receptor (Rattus norvegicus) (P30994 whole entry, looked up): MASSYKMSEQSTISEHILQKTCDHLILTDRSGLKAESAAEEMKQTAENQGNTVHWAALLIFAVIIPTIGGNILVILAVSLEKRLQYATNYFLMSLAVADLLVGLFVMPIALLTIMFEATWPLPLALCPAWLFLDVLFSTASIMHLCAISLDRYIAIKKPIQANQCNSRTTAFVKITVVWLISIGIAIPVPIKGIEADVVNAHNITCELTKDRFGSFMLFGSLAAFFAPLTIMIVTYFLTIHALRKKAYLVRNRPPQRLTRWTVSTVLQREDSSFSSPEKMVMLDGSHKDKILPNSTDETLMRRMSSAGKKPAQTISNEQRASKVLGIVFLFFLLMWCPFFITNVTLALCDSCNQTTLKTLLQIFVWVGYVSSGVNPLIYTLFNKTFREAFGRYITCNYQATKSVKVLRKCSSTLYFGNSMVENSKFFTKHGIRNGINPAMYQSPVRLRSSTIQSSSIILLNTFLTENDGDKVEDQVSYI
Sequence of Dopamine D2 receptor/Serotonin 2 (5-HT2) receptor (Rattus norvegicus) (P61169 whole entry, looked up): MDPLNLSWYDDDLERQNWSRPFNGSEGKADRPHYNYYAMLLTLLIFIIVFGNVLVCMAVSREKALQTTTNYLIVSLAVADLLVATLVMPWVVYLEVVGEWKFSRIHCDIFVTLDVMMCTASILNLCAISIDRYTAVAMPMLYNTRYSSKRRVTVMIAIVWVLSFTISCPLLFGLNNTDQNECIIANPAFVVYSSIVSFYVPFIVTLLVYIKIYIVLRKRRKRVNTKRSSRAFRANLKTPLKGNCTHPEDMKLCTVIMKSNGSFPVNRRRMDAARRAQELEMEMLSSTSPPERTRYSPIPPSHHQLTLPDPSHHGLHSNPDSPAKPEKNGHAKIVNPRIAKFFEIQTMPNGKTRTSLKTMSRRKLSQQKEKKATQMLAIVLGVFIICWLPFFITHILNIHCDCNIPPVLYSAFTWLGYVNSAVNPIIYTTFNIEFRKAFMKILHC

T1 sequence (P61169 whole entry): as the sequence (P61169 whole entry, looked up) above

Q: `CN1CN(c2ccccc2)C2(CCN(CCCC(=O)c3ccc(F)cc3)CC2)C1=O` [MESPIPERONE] was tested. Which pKi (D(2) dopamine receptor [1]) did it give?
A: 9.93

Q: What about the Ki [2] of the same molecule?
A: 0.55 nM

Q: How did the pKi (D(2) dopamine receptor [3]) turn out when `O=C(CCCN1CCC2(CC1)C(=O)N(Cc1ccc(F)cc1)CN2c1ccccc1)c1ccc(F)cc1` was run?
A: 10.16

Q: What about the Ratio [4] of the same molecule?
A: 300

Q: What about the Ki [2] of the same molecule?
A: 21 nM

Q: `O=C(CCCN1CCC2(CC1)C(=O)N(Cc1ccccc1)CN2c1ccccc1)c1ccc(F)cc1` was tested. Which pKi (D(2) dopamine receptor [3]) did it give?
A: 10.64

Q: And the Ratio [4]?
A: 140

Q: And the Ki [2]?
A: 3.2 nM

Q: Which results are given for `O=C(CCCN1CCC2(CC1)C(=O)N(Cc1ccccc1I)CN2c1ccccc1)c1ccc(F)cc1`?
A: pKi (D(2) dopamine receptor [1]): 10.20; Ki [2]: 19 nM

Q: Which results are given for `Cc1ccc(CN2CN(c3ccccc3)C3(CCN(CCCC(=O)c4ccc(F)cc4)CC3)C2=O)cc1`?
A: pKi (D(2) dopamine receptor [1]): 10.17; Ki [2]: 37 nM

Q: `O=C(CCCN1CCC2(CC1)C(=O)N(Cc1cccc(F)c1)CN2c1ccccc1)c1ccc(F)cc1` was tested. Which pKi (D(2) dopamine receptor [3]) did it give?
A: 10.64

Q: What about the Ratio [4] of the same molecule?
A: 230

Q: What about the Ki [2] of the same molecule?
A: 5.3 nM

Q: Which results are given for `COc1ccccc1CN1CN(c2ccccc2)C2(CCN(CCCC(=O)c3ccc(F)cc3)CC2)C1=O`?
A: pKi (D(2) dopamine receptor [1]): 10.33; Ki [2]: 1.9 nM

Q: Which results are given for `O=C(CCCN1CCC2(CC1)C(=O)N(Cc1ccc(I)cc1)CN2c1ccccc1)c1ccc(F)cc1`?
A: pKi (D(2) dopamine receptor [1]): 9.67; Ki [2]: 89 nM

Q: `O=C(CCCN1CCC2(CC1)C(=O)N(Cc1ccccc1[N+](=O)[O-])CN2c1ccccc1)c1ccc(F)cc1` was tested. Which pKi (D(2) dopamine receptor [1]) did it give?
A: 9.92

Q: What about the Ki [2] of the same molecule?
A: 0.68 nM

Q: `CC(C)CCN1CN(c2ccccc2)C2(CCN(CCCC(=O)c3ccc(F)cc3)CC2)C1=O` was tested. Which pKi (D(2) dopamine receptor [3]) did it give?
A: 10.20

Q: And the Ratio [4]?
A: 21

Q: What about the Ki [2] of the same molecule?
A: 1.3 nM

Q: What does the source list for `CCCN1CN(c2ccccc2)C2(CCN(CCCC(=O)c3ccc(F)cc3)CC2)C1=O`?
A: pKi (D(2) dopamine receptor [3]): 10.54; Ratio [4]: 3.3; Ki [2]: 0.096 nM

Q: With `O=C(CCCN1CCC2(CC1)C(=O)N(Cc1ccccc1F)CN2c1ccccc1)c1ccc(F)cc1` as the molecule, how does the pKi (D(2) dopamine receptor [3]) read?
A: 10.37

Q: What about the Ratio [4] of the same molecule?
A: 100

Q: What about the Ki [2] of the same molecule?
A: 4.4 nM

Q: `CCCCCN1CN(c2ccccc2)C2(CCN(CCCC(=O)c3ccc(F)cc3)CC2)C1=O` was tested. Which pKi (D(2) dopamine receptor [3]) did it give?
A: 10.21

Q: What about the Ratio [4] of the same molecule?
A: 18

Q: And the Ki [2]?
A: 1.1 nM

Q: Which results are given for `O=C(CCCN1CCC2(CC1)C(=O)N(CCc1ccccc1)CN2c1ccccc1)c1ccc(F)cc1`?
A: pKi (D(2) dopamine receptor [3]): 10.46; Ratio [4]: 29; Ki [2]: 1 nM

Q: With `CCN1CN(c2ccccc2)C2(CCN(CCCC(=O)c3ccc(F)cc3)CC2)C1=O` as the molecule, how does the pKi (D(2) dopamine receptor [1]) read?
A: 10.24

Q: And the Ki [2]?
A: 0.31 nM

Q: Which results are given for `COc1ccc(CN2CN(c3ccccc3)C3(CCN(CCCC(=O)c4ccc(F)cc4)CC3)C2=O)cc1`?
A: pKi (D(2) dopamine receptor [1]): 10.06; Ki [2]: 12 nM

Q: `CC(C)CN1CN(c2ccccc2)C2(CCN(CCCC(=O)c3ccc(F)cc3)CC2)C1=O` was tested. Which pKi (D(2) dopamine receptor [3]) did it give?
A: 10.41

Q: And the Ratio [4]?
A: 3.3

Q: What about the Ki [2] of the same molecule?
A: 0.13 nM

Q: How did the pKi (D(2) dopamine receptor [3]) turn out when `CCCCN1CN(c2ccccc2)C2(CCN(CCCC(=O)c3ccc(F)cc3)CC2)C1=O` was run?
A: 10.44

Q: And the Ratio [4]?
A: 11

Q: What about the Ki [2] of the same molecule?
A: 0.41 nM

Q: `Cc1ccccc1CN1CN(c2ccccc2)C2(CCN(CCCC(=O)c3ccc(F)cc3)CC2)C1=O` was tested. Which pKi (D(2) dopamine receptor [3]) did it give?
A: 10.48

Q: And the Ratio [4]?
A: 290

Q: And the Ki [2]?
A: 9.6 nM

Q: What does the source list for `O=C(CCCN1CCC2(CC1)C(=O)N(Cc1ccc([N+](=O)[O-])cc1)CN2c1ccccc1)c1ccc(F)cc1`?
A: pKi (D(2) dopamine receptor [1]): 9.92; Ki [2]: 14 nM
